pEC50: −log10 of the molar value. Active and inactive are the calls of the source. The calls are words filed in the database; no cut-off is given here.
Key:
Format in all cases: cell-based
[1] = Selectivity ratio for agonist activity at PPARdelta LBD (unknown origin) transiently transfected in HEK293T cells to agonist activity at human Nurr1 LBD transiently transfected in HEK293T cells
[2] = Selectivity ratio for agonist activity at PPARgamma LBD (unknown origin) transiently transfected in HEK293T cells to agonist activity at human NOR-1 LBD transiently transfected in HEK293T cells
[3] = target: T1, Retinoic acid receptor alpha (Homo sapiens) (UniProt P10276); experiment: Agonist activity at RARalpha LBD (unknown origin) transiently transfected in HEK293T cells at 1 uM incubated for 16 hrs by Gal4-hybrid reporter gene based Dual-glo luciferase assay
T1 sequence (whole entry): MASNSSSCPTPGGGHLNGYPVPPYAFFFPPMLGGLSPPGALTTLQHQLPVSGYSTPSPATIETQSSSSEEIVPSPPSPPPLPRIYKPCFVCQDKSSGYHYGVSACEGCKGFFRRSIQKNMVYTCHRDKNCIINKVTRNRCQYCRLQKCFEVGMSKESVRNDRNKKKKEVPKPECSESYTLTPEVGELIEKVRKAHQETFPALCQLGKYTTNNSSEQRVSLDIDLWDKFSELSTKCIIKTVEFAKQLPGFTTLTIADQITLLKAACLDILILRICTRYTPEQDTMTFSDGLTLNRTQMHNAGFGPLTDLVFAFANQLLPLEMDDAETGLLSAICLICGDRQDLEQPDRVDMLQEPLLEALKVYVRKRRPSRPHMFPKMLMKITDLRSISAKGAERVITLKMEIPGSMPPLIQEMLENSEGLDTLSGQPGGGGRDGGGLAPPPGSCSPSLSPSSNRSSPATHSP

[4] = Selectivity ratio for agonist activity at FXR LBD (unknown origin) transiently transfected in HEK293T cells to agonist activity at human Nur77 LBD transiently transfected in HEK293T cells
[5] = target: Nuclear receptor subfamily 4 group A member 2 (Homo sapiens, UniProt P43354); experiment: Agonist activity at full length human Nurr1 transiently transfected in HEK293T cells co-transfected with pFR-Luc-NBRE incubated for 16 hrs by Gal4-hybrid reporter gene based Dual-glo luciferase assay
[6] = Selectivity ratio for agonist activity at PPARgamma LBD (unknown origin) transiently transfected in HEK293T cells to agonist activity at human Nurr1 LBD transiently transfected in HEK293T cells
[7] = target: Nuclear receptor subfamily 4immunitygroup A member 1 (Homo sapiens, UniProt P22736); experiment: Agonist activity at human Nur77 LBD transiently transfected in HEK293T cells incubated for 16 hrs by Gal4-hybrid reporter gene based Dual-glo luciferase assay
[8] = target: T2, Thyroid hormone receptor alpha (Homo sapiens) (UniProt P10827); experiment: Agonist activity at THRalpha LBD (unknown origin) transiently transfected in HEK293T cells at 1 uM incubated for 16 hrs by Gal4-hybrid reporter gene based Dual-glo luciferase assay
T2 sequence (whole entry): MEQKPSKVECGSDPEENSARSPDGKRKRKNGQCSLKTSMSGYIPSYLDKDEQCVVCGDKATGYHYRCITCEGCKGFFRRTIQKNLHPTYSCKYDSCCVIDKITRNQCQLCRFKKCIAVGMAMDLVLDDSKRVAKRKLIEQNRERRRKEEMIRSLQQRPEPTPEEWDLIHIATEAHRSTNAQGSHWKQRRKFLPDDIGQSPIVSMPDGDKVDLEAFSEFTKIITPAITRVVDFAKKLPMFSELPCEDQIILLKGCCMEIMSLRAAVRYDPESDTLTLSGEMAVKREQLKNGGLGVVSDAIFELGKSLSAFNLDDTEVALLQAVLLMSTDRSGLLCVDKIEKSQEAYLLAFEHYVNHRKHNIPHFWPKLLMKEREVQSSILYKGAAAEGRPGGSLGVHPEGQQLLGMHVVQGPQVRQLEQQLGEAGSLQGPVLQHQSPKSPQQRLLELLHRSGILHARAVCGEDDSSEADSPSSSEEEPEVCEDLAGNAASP

[9] = Selectivity ratio for agonist activity at THRalpha LBD (unknown origin) transiently transfected in HEK293T cells to agonist activity at human Nur77 LBD transiently transfected in HEK293T cells

Sequence of Nuclear receptor subfamily 4 group A member 2 (P43354 whole entry, the tested form may be a part): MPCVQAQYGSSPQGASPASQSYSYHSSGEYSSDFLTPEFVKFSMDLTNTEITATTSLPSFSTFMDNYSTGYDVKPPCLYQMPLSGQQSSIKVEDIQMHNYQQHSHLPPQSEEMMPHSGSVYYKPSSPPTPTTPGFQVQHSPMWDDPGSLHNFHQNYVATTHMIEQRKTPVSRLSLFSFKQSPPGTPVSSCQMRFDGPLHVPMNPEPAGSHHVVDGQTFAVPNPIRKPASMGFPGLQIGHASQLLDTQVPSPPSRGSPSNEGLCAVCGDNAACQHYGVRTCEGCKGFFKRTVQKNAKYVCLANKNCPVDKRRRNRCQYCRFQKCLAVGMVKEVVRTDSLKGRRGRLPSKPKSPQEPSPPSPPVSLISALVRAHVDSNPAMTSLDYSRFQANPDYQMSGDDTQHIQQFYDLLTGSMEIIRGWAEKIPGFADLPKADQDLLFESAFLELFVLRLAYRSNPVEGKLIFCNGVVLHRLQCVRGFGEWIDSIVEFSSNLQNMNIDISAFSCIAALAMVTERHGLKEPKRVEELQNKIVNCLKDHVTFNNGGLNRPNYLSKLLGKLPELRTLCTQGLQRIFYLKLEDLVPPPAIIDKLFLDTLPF
Sequence of Nuclear receptor subfamily 4immunitygroup A member 1 (P22736 whole entry, the tested form may be a part): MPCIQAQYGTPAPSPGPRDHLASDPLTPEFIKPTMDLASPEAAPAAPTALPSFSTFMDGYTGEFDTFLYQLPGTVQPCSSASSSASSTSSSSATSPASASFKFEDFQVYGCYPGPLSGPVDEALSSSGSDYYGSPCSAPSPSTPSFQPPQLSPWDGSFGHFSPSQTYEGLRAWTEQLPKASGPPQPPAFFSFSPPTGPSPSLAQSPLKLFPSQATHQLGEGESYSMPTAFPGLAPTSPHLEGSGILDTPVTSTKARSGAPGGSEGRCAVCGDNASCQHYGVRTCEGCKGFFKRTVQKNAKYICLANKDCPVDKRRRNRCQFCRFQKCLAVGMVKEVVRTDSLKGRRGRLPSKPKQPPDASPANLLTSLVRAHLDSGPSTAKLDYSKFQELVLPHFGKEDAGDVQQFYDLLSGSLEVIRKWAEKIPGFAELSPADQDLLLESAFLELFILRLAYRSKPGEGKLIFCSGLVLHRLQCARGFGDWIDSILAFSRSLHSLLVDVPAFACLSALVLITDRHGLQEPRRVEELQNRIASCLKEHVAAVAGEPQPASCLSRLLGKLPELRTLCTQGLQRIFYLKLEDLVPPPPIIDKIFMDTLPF

CC(C)(C)c1ccc(COc2cccc(C(=O)O)c2)cc1
Selectivity ratio [1]: > 30 | Selectivity ratio [2]: > 30 | Activity [3]: inactive | Selectivity ratio [4]: > 30 | pEC50 [5]: 7.89 | Selectivity ratio [6]: > 30 | pEC50 [7]: 6.85 | Activity [8]: inactive | Selectivity ratio [9]: > 30
